Results reported in US6358885B1, “Substituted phenylheterocyclic herbicides” (Mississippi State University, priority 1992, dated 2002).

What was measured:
Experiment in all cases: Test G preemergence/postemergence greenhouse plant response rating 0 to 100
[1] = test system: bermudagrass; format: in vivo, Cynodon dactylon; settings: 0 to 100 scale
Text: (§1) Seeds, rhizomes, or plant parts of alfalfa (Medicago ativa), annual bluegrass (Poa annua), bermudagrass (Cynodon dactylon), broadleaf signalgrass (Brachiaria plantaginea), common purslane (Portulaca oleracea), common ragweed (Ambrosia elatior), […] (Paspalum dilatatum), goosegrass (Eleusine indica), guineagrass (Panicum maximum), […] exaltata), johnsongrass (Sorghum halepense), large crabgrass (Digitaria sanguinalis), peanut (Arachis hypoagaea), pitted morningglory (Ipomoea lacunosa), purple nutsedge (Cyperus rotundus), sandbur (Cenchrus echinatus), smooth crabgrass (Digitaria ischaemum) and yellow nutsedge (Cyperus esculentus) were planted into greenhouse pots containing greenhouse planting medium. Each pot contained only one plant species. The test compound was dissolved in a non-phytotoxic solvent and applied preemergence and/or postemergence to the plants. Preemergence applications were made within one day of planting the seeds or plant parts. Postemergence applications were applied when the plants were in the two to four leaf stage (three to twenty cm). Test chemicals were dissolved in a non-phytotoxic solvent and applied preemergence and postemergence to the plants. Untreated control plants and treated plants were placed in the greenhouse and visually evaluated for injury at 13 to 21 days after herbicide application. […] A dash (-) response indicates no test result.

[2] = test system: dallisgrass; format: in vivo, Paspalum dilatatum; settings: 0 to 100 scale
Text: as §1

[3] = test system: common ragweed; format: in vivo, Ambrosia elatior; settings: 0 to 100 scale
Text: as §1

[4] = test system: goosegrass; format: in vivo, Eleusine indica; settings: 0 to 100 scale
Text: as §1

[5] = test system: alfalfa; format: in vivo, Medicago ativa; settings: 0 to 100 scale
Text: as §1

[6] = test system: peanut; format: in vivo, Arachis hypoagaea; settings: 0 to 100 scale
Text: as §1

[7] = test system: purple nutsedge; format: in vivo, Cyperus rotundus; settings: Rate 125 g/ha, 0 to 100 scale
Text: as §1

[8] = test system: johnsongrass; format: in vivo, Sorghum halepense; settings: 0 to 100 scale
Text: as §1

[9] = test system: broadleaf signalgrass; format: in vivo, Brachiaria plantaginea; settings: 0 to 100 scale
Text: as §1

[10] = test system: yellow nutsedge; format: in vivo, Cyperus esculentus; settings: Rate 125 g/ha, 0 to 100 scale
Text: as §1

[11] = test system: guineagrass; format: in vivo, Panicum maximum; settings: 0 to 100 scale
Text: as §1

[12] = test system: pitted morningglory; format: in vivo, Ipomoea lacunosa; settings: 0 to 100 scale
Text: as §1

[13] = test system: common purslane; format: in vivo, Portulaca oleracea; settings: 0 to 100 scale
Text: as §1

[14] = test system: smooth crabgrass; format: in vivo, Digitaria ischaemum; settings: 0 to 100 scale
Text: as §1

[15] = test system: itchgrass; format: in vivo, Rottboellia exaltata; settings: 0 to 100 scale
Text: as §1

[16] = test system: large crabgrass; format: in vivo, Digitaria sanguinalis; settings: 0 to 100 scale
Text: as §1

[17] = test system: annual bluegrass; format: in vivo, Poa annua; settings: 0 to 100 scale
Text: as §1

COC(=O)C(C)Oc1cc(-c2nn3c(c2Cl)CCCC3)c(F)cc1Cl (stereo not shown) [Compound 28]
Plant response rating, Bermudagrass ([1]; POSTEMERGENCE, Rate 125 g/ha): 0
Plant response rating, Bermudagrass ([1]; POSTEMERGENCE, Rate 250 g/ha): 0
Plant response rating, Bermudagrass ([1]; PREEMERGENCE, Rate 125 g/ha): 0
Plant response rating, Bermudagrass ([1]; PREEMERGENCE, Rate 250 g/ha): 0
Plant response rating, Dallisgrass ([2]; POSTEMERGENCE, Rate 125 g/ha): 0
Plant response rating, Dallisgrass ([2]; POSTEMERGENCE, Rate 250 g/ha): 0
Plant response rating, Dallisgrass ([2]; PREEMERGENCE, Rate 125 g/ha): 0
Plant response rating, Dallisgrass ([2]; PREEMERGENCE, Rate 250 g/ha): 0
Plant response rating, Cmn Ragweed ([3]; POSTEMERGENCE, Rate 125 g/ha): 100
Plant response rating, Cmn Ragweed ([3]; POSTEMERGENCE, Rate 250 g/ha): 60
Plant response rating, Cmn Ragweed ([3]; PREEMERGENCE, Rate 125 g/ha): 0
Plant response rating, Cmn Ragweed ([3]; PREEMERGENCE, Rate 250 g/ha): 0
Plant response rating, Goosegrass ([4]; POSTEMERGENCE, Rate 125 g/ha): 0
Plant response rating, Goosegrass ([4]; POSTEMERGENCE, Rate 250 g/ha): 0
Plant response rating, Goosegrass ([4]; PREEMERGENCE, Rate 125 g/ha): 0
Plant response rating, Goosegrass ([4]; PREEMERGENCE, Rate 250 g/ha): 0
Plant response rating, Alfalfa Var. ([5]; POSTEMERGENCE, Rate 125 g/ha): 0
Plant response rating, Alfalfa Var. ([5]; POSTEMERGENCE, Rate 250 g/ha): 0
Plant response rating, Alfalfa Var. ([5]; PREEMERGENCE, Rate 125 g/ha): 0
Plant response rating, Alfalfa Var. ([5]; PREEMERGENCE, Rate 250 g/ha): 0
Plant response rating, Peanuts ([6]; POSTEMERGENCE, Rate 125 g/ha): 0
Plant response rating, Peanuts ([6]; POSTEMERGENCE, Rate 250 g/ha): 0
Plant response rating, Peanuts ([6]; PREEMERGENCE, Rate 125 g/ha): 0
Plant response rating, Peanuts ([6]; PREEMERGENCE, Rate 250 g/ha): 0
Plant response rating, Purple Nutsedge ([7]; POSTEMERGENCE): 0
Plant response rating, Purple Nutsedge ([7]; PREEMERGENCE): 0
Plant response rating, Johnsongrass ([8]; POSTEMERGENCE, Rate 125 g/ha): 0
Plant response rating, Johnsongrass ([8]; POSTEMERGENCE, Rate 250 g/ha): 0
Plant response rating, Johnsongrass ([8]; PREEMERGENCE, Rate 125 g/ha): 0
Plant response rating, Johnsongrass ([8]; PREEMERGENCE, Rate 250 g/ha): 0
Plant response rating, Brdlf Sgnlgrass ([9]; POSTEMERGENCE, Rate 125 g/ha): 0
Plant response rating, Brdlf Sgnlgrass ([9]; POSTEMERGENCE, Rate 250 g/ha): 0
Plant response rating, Brdlf Sgnlgrass ([9]; PREEMERGENCE, Rate 125 g/ha): 0
Plant response rating, Brdlf Sgnlgrass ([9]; PREEMERGENCE, Rate 250 g/ha): 0
Plant response rating, Yellow Nutsedge ([10]; POSTEMERGENCE): 0
Plant response rating, Yellow Nutsedge ([10]; PREEMERGENCE): 0
Plant response rating, Guineagrass ([11]; POSTEMERGENCE, Rate 125 g/ha): 0
Plant response rating, Guineagrass ([11]; POSTEMERGENCE, Rate 250 g/ha): 0
Plant response rating, Guineagrass ([11]; PREEMERGENCE, Rate 125 g/ha): 0
Plant response rating, Guineagrass ([11]; PREEMERGENCE, Rate 250 g/ha): 0
Plant response rating, Pit Morninglory ([12]; POSTEMERGENCE, Rate 125 g/ha): 0
Plant response rating, Pit Morninglory ([12]; POSTEMERGENCE, Rate 250 g/ha): 0
Plant response rating, Pit Morninglory ([12]; PREEMERGENCE, Rate 125 g/ha): 0
Plant response rating, Pit Morninglory ([12]; PREEMERGENCE, Rate 250 g/ha): 0
Plant response rating, Cmn Purslane ([13]; POSTEMERGENCE, Rate 125 g/ha): 30
Plant response rating, Cmn Purslane ([13]; POSTEMERGENCE, Rate 250 g/ha): 60
Plant response rating, Cmn Purslane ([13]; PREEMERGENCE, Rate 125 g/ha): 0
Plant response rating, Cmn Purslane ([13]; PREEMERGENCE, Rate 250 g/ha): 0
Plant response rating, Smooth Crabgras ([14]; POSTEMERGENCE, Rate 125 g/ha): 0
Plant response rating, Smooth Crabgras ([14]; POSTEMERGENCE, Rate 250 g/ha): 0
Plant response rating, Smooth Crabgras ([14]; PREEMERGENCE, Rate 125 g/ha): 0
Plant response rating, Smooth Crabgras ([14]; PREEMERGENCE, Rate 250 g/ha): 0
Plant response rating, Itchgrass ([15]; POSTEMERGENCE, Rate 125 g/ha): 0
Plant response rating, Itchgrass ([15]; POSTEMERGENCE, Rate 250 g/ha): 0
Plant response rating, Itchgrass ([15]; PREEMERGENCE, Rate 125 g/ha): 0
Plant response rating, Itchgrass ([15]; PREEMERGENCE, Rate 250 g/ha): 0
Plant response rating, Large Crabgrass ([16]; POSTEMERGENCE, Rate 125 g/ha): 0
Plant response rating, Large Crabgrass ([16]; POSTEMERGENCE, Rate 250 g/ha): 0
Plant response rating, Large Crabgrass ([16]; PREEMERGENCE, Rate 125 g/ha): 0
Plant response rating, Large Crabgrass ([16]; PREEMERGENCE, Rate 250 g/ha): 0
Plant response rating, Ann Bluegrass ([17]; POSTEMERGENCE, Rate 125 g/ha): 0
Plant response rating, Ann Bluegrass ([17]; POSTEMERGENCE, Rate 250 g/ha): 0
Plant response rating, Ann Bluegrass ([17]; PREEMERGENCE, Rate 125 g/ha): 0
Plant response rating, Ann Bluegrass ([17]; PREEMERGENCE, Rate 250 g/ha): 0
